Experimental data from patent US20100173874A1, “Delivery of modulators of glutamate-mediated neurotransmission to the inner ear” (priority 2002, published 2010).
“Also recorded” adds a separate entry of the source.

How the values were obtained:
rats [1] = details: 300 mg/kg/day i.p. during 4 days; frequency range 2 to 26 KHz
Description: CAP thresholds were measured using an electrode chronically implanted on round window in response to a tone burst of 1 ms rise/fall time and 9 ms duration presented at a rate of 10 times per second.
(§1) CAP threshold shifts were calculated as the difference in dB between the auditory threshold at day 0 and the auditory threshold at each day. To avoid changes due to hearing loss, the intensity of sound eliciting behavioral responses was adjusted as a function of CAP threshold shift.

auditory nerve fibers = assay: Single unit recording of auditory nerve fibers during intracochlear perfusion (salicylate-induced excitation); assay type: in vivo, guinea pig
Description: (§2) Experiments were performed on adult guinea pigs weighing from about 250 g to 300 g. The animals were anaesthetized with urethane (1.4 g/kg, i.p.) and artificially respired. Supplemental doses of urethane (0.35 g/kg, i.p.) were administered every 2 hr, or more often if the animal withdrew its paw in response to pressure applied to the paw. The rectal temperature was maintained at about 38.5±1° C., and heart rate (normal range 260-330 beats/min) monitored using EKG electrodes. The external auditory canal was opened near the tympanic annulus, exposing the tympanic membrane and allowing sound to reach the drum without any obstruction. At the end of the experiment, the animals were euthanized by intracardiac injection of an overdose of sodium pentobarbitone.
Salicylate Tinnitus Model. Salicylate, the active component of aspirin, is of special concern in auditory science because it induces tinnitus in humans. The efficacy of agents to treat tinnitus was tested by measuring firing rate of the auditory nerve fibers in presence of salicylate.
Briefly, the test solutions were applied into the cochlea using a multi-barrel perfusion pipette (ASI Instruments) placed into a hole made in the basal turn scala tympani and allowed to flow out of the cochlea through a hole (0.2 mm diameter) made at the apex. The cochlear nerve was exposed using a posterior fossa approach. Extracellular action potentials from single auditory nerve fibers were recorded with glass microelectrodes. Once a single unit was isolated, spontaneous activity was averaged over 10 seconds. The unit's tuning curves were then determined by a computer-controlled, threshold-tracking program using a 200 ms tone burst presented at 3/s. The threshold criterion was a difference of 10 spikes/s, i.e., 2 spikes difference between the tone (200 ms) and non-tone (200 ms) counting intervals. The program determined the characteristic frequency (CF) and the frequency tuning of the fiber by measuring the Q10dB defined as the CF divided by the bandwidth at 10 dB above the CF threshold.
An experiment was carried out to determine the ability of perfused Glutamate antagonists to suppress salicylate-induced excitation.

rats [2] = assay: Behavioral model of salicylate-induced tinnitus (active avoidance task)
Description: To verify that the excitatory action of sodium-salicylate on the auditory nerve fibers results in perception of tinnitus, a behavioral model was designed in rats based upon an active avoidance task. Animals were trained to respond to a conditioned stimulus consisting of a 10 kHz tone burst of 3 s duration.
as §1
Gelfoam placed on the round window was used to apply drugs into the fluid of the cochlea.
To support the hypothesis that salicylate induced false positive via cochlear NMDA receptors, we applied other NMDA antagonists into the perilymphatic fluids using gelfoam placed on the round window of both ears.

inner ear = details: acute cochlear perfusion; Wang et al., Neuroscience 2002; cited from earlier work
cochlea [3] = assay: CAP amplitude after chronic round window perfusion; assay type: in vivo, guinea pig; details: 8 kHz tone burst stimulation, mean of 5 animals
Description: as §2

cochlea [4] = assay: CAP amplitude after acute intracochlear perfusion; assay type: in vivo, guinea pig; details: 8 kHz tone burst stimulation, mean of 5 animals
Description: as §2

radial dendrites = details: intracochlear perfusion ten minutes prior to or concomitant with AMPA perfusion; cited from earlier work
guinea pigs = details: intracochlear perfusion; cited from earlier work
[5] = 300 mg/kg/day i.p., daily during 4 days
[6] = intracochlear perfusion, 50 μM, 5 mM NaSal

## O=C([O-])c1ccccc1O.[Na+] [sodium-salicylate]
Rats [1]
  hearing loss (CAP threshold): 30 dB
Auditory nerve fibers; intracochlear application, 5 mM
  spontaneous firing of the auditory nerve fibers: reversibly increased spontaneous firing of the auditory nerve fibers
Rats [2]; [5]
  number of false positives (responses without sound): drastic increase of the number of false positives
  score (positive responses to sound, % of total): reversible reduction of the score
Rats [2]; salicylate days 2 to 5, sound intensity adjusted as a function of CAP threshold shift
  score (positive responses to sound): no significant decrease in the score was observed
Rats [2]; salicylate treatment, sound intensity adjusted as a function of CAP threshold shift
  false positive responses: false positive responses still remained

## Dizocilpine [MK 801]
Auditory nerve fibers; intracochlear perfusion, 10 μM
  neural excitation of auditory nerve induced by sodium-salicylate: suppressed neural excitation induced by sodium-salicylate
  spontaneous activity of the auditory nerve fiber: had no effect on spontaneous activity
Rats [2]; 10 μM, gelfoam on the round window
  score under salicylate treatment: reduction of the score still been unchanged
Rats [2]; 10 μM, gelfoam on the round window, day 4 of salicylate treatment, n=10
  number of false positive responses induced by salicylate: drastically reduced the occurrence of the false positive responses

## COc1ccc2c(c1)c(CC(=O)O)c(C)n2C(=O)c1ccc(Cl)cc1 [indomethacin]
Auditory nerve fibers; intracochlear perfusion, 100 μM in artificial perilymph, fiber coding for 8 kHz
  spontaneous activity of the auditory nerve fiber: did not change the spontaneous activity of the auditory nerve fiber

## Nc1nc2ccc(OC(F)(F)F)cc2s1 [Riluzole]
Inner ear
  hearing after noise induced hearing loss: rescues hearing after noise induced hearing loss
Cochlea [3]
  mean amplitude of the CAP: reduced the CAP amplitude in the dose dependent manner
Cochlea [4]
  mean amplitude of the CAP: reduce the CAP amplitude in a dose-dependent manner

## CC1CCCCC1(c1cccs1)N1CCCCC1 (stereo not shown) [gacyclidine, Gacyclidine]
Auditory nerve fibers; intracochlear perfusion, 50 μM
  spontaneous activity of the auditory nerve fiber: had no effect on spontaneous activity; also recorded: not the spontaneous activity of the fiber
Auditory nerve fibers; [6]
  neural excitation of auditory nerve induced by sodium-salicylate: suppressed neural excitation induced by sodium-salicylate; also recorded: suppressed neural excitation of auditory nerve induced by Na Salicylate
Rats [2]; 50 μM, gelfoam on the round window
  score under salicylate treatment: reduction of the score still been unchanged

## O=c1[nH]c2cc([N+](=O)[O-])c([N+](=O)[O-])cc2[nH]c1=O [DNQX, 6-7-dinitorquinoxaline-2,3-dione]
Radial dendrites
  radial dendrite swelling: prevented most of the occurrence of radial dendrite swelling

## O=C(O)c1cc(=O)c2ccccc2[nH]1 [kynurenate]
Guinea pigs
  protection against sound-induced synaptic damage: protects against sound-induced synaptic damage

## CNC(=O)N1N=C(c2ccc(N)cc2)c2cc3c(cc2C[C@H]1C)OCO3 [GYKI 53784]
Auditory nerve fibers; intracochlear perfusion, 50 μM
  auditory nerve fiber activity evoked by sound: blocked both spontaneous activity and those evoked induced by sodium-salicylate or sound
  spontaneous activity of the auditory nerve fiber: blocked both the spontaneous and the evoked activity
Auditory nerve fibers; [6]
  neural excitation of auditory nerve induced by sodium-salicylate: blocked both the spontaneous and the evoked activity
